Columns and labels:
[1] = target: voltage-gated K+ channel KCNQ2 (Homo sapiens, UniProt O43526); experiment: Thallium flux assay for openers of KCNQ potassium channels; type: cell-based; settings: 10 point concentration series, 50% of the maximal response
Text: A thallium flux assay was used to detect and characterize openers of KCNQ potassium channels. The thallium assay is generally described in International application WO 02/31508 published Apr. 18, 2002. More specifically, the thallium influx assay to detect compounds that block or open the voltage-gated K^+ channel KCNQ2 is described in Example IV of the published WO 02/31508 application.
For data analysis, the amplitude of the average of the negative controls was subtracted from all wells. The amplitudes of the test compounds were then compared to the value of four standard deviations of the negative control wells. The lowest concentration of a test compound sufficient to generate a signal amplitude greater than or equal to four standard deviations from the amplitude of the negative controls was defined as the minimal active concentration.
For generating EC50 values, compounds were serially diluted in 1:3 volume increments to produce a 10 point concentration series. EC50 values were calculated by fitting the resulting amplitudes to a single-site logistic equation. EC50 was defined as the concentration of test compound required to yield 50% of the maximal response. Maximal response (Maximal opening) was the largest signal amplitude above the negative control generated by any concentration of a test compound.

[2] = target: T1, mKCNQ2 channels (Mus musculus, UniProt Q9Z351); experiment: Whole-cell patch-clamp recordings of mKCNQ2 currents; type: cell-based; settings: HEK 293 stable cell line expressing mKCNQ2
T1 construct: expressed in transfected cells
Protocol: Whole-cell patch-clamp recordings were made from an HEK 293 stable cell line expressing mKCNQ2 channels, maintained in culture for 1–2 days. Patch pipettes had initial resistances of 2.5–4 MΩ. Currents were recorded with an EPC-9 amplifier (HEKA, Lambrecht, Germany) controlled with software (Pulse, HEKA) run on a standard lab PC. Series resistance compensation was used during current recording, and set at 80%. The series resistance (R) and cell capacitance (C) were determined electronically by subtracting the capacitive currents at the onset and offset of a 5 mV voltage step. The cancellation of whole-cell capacitive transients was virtually complete in all cells. Analog current signals were low-pass filtered at 2.9 kHz using a four-pole Bessel filter −3 dB) and stored on a local network server computer at a sampling rate of […]. All recordings were performed at room temperature (20–22° C.). The pipette solution contained (mM): KCl, 150; CaCl2, 2.5; EGTA, 5; MgCl2, 1; HEPES, 10; pH to 7.3 with KOH, and Osmolality of 290–300 mOsm. The extracellular solution contained (mM): NaCl, 140; KCl, 2.5; CaCl2, 2.5; MgCl2, 1; glucose, 10; HEPES, 10; pH to 7.3 with NaOH, and Osmolality of 305–310 mOsm […]

O=C(N[C@@H](CO)c1ccc2ccccc2c1)C1CC1c1ccccc1F (stereo partly drawn) [Example 11, 2-(2-Fluoro-phenyl)-cyclopropanecarboxylic acid(2-hydroxy-1-naphthalen-2-yl-ethyl)-amide]
EC50 [1]: 1440 nM

O=C(N[C@@H](CO)c1ccc2ccccc2c1)C1CC1c1ccccc1Cl (stereo partly drawn) [Example 9, 2-(2-Chloro-phenyl)-cyclopropanecarboxylic acid(2-hydroxy-1-naphthalen-2-yl-ethyl)-amide]
EC50 [1]: 22 nM

O=C(N[C@@H](CO)c1ccc2ccccc2c1)C1CC1c1ccccc1 (stereo partly drawn) [Example 15, 2-(phenyl)-cyclopropanecarboxylic acid(2-hydroxy-1-naphthalen-2-yl-ethyl)-amide]
EC50 [1]: 1 nM

C[C@H](NC(=O)C1CC1c1cccc(F)c1)c1cccc(-c2ccc(Cl)nc2)c1 (stereo partly drawn) [Example 34, (S)-2-(3-Fluoro-phenyl)-cyclopropanecarboxylicacid {1-[3-(6-chloro-pyridin-3-yl)-phenyl]-ethyl}-amide]
EC50 [1]: 2210 nM

O=C(N[C@@H](CO)c1ccc2ccccc2c1)C1CC1c1ccc(F)cc1 (stereo partly drawn) [Example 13, 2-(4-Fluoro-phenyl)-cyclopropanecarboxylic acid(2-hydroxy-1-naphthalen-2-yl-ethyl)-amide]
EC50 [1]: 12 nM | EC50 ([2]; @ −40 mV, room temperature): 0.597 µM | Imax (%) ([2]; Imax from Hill-type curve fit): 1232%

C[C@H](NC(=O)[C@@H]1C[C@H]1c1ccccc1)c1cccc(-c2cccnc2)c1 [Example 32, (S)-2-Phenyl-cyclopropanecarboxylicacid [1-(3-pyridin-3-yl-phenyl)-ethyl]-amide]
EC50 [1]: 1 nM

O=C(N[C@@H](CO)c1ccc2ccccc2c1)C1CC1c1cc(F)ccc1F (stereo partly drawn) [Example 14, 2-(2,5-Difluoro-phenyl)-cyclopropanecarboxylic acid(2-hydroxy-1-naphthalen-2-yl-ethyl)-amide]
EC50 [1]: 1 nM

— patent US7144881B2, “Arylcyclopropylcarboxylic amides as potassium channel openers” (Bristol-Myers Squibb Company, priority 2002, dated 2006)
